Laboratory results as given in patent US4263302A, “Quinolinecarboxylic acid substituted penicillins and pharmaceutical compositions containing the same” (Mitsui Toatsu Chemicals, Incorporated, priority 1978, dated 1981).
Values after ≈ are worked out from the molar mass of the structure shown. Read-outs that look alike come from different tables or passages of the source.

Experiments:
[1] = system: Pseudomonas aeruginosa; conditions: in words, background literature; cited from earlier work
[2] = system: Staphylococcus aureus (Y-8); test: antibacterial activity, minimum growth inhibitory concentration method (MIC method); format: cell-based; conditions: HIA medium, 37° C., 18 hours
Description: (§1) The antibacterial activity was tested by the minimum growth inhibitory concentration method (MIC method).
(§2) A commercially available heart infusion agar medium (to be abbreviated HIA medium) was used as an assay medium, and a commercially available trypto-soy bouillon medium (to be abbreviated TSB) was used as a medium for the growth of test bacterial strains.
(§3) The test compound was diluted with the melted HIA medium to 100 μg/ml as a maximum concentration, and then serially diluted doubly. The dilutions were poured into sterilized Petri dishes respectively and allowed to cool and solidify to prepare plates containing the test compound.
(§4) As a control, carbenicillin sodium (CB-PC) was used.
(§5) The test strain was cultivated in the TBS medium at 37° C. for 18 hours, and the culture broth was diluted with a freshly prepared TBS medium to 50 to 500 times, and one platinum loopful of the dilution was inoculated in each of the plates containing the test compound. The plate was incubated at 37° C. for 18 hours. The state of growth of the strain on the plate was observed, and the minimum growth inhibitory concentration (MIC) of the compound was determined.

[3] = system: Enterobacter aerogenes (IFO-3320); test: as above; format: cell-based; conditions: Klebsiella aerogenes, read-out: Minimum growth inhibitory concentration (MIC)
Description: as §1, §2, §3, §4, §5

[4] = system: Pseudomonas aeruginosa (IFO-3901); test: as above; format: cell-based; conditions: IFO3901, HIA medium, 37° C., 18 hours
Description: as §1, §2, §3, §4, §5

[5] = system: Staphylococcus aureus (FDA 209P); test: as above; format: cell-based; conditions: FDA209P, read-out: Minimum growth inhibitory concentration (MIC)
Description: as §1, §2, §3, §4, §5

[6] = system: Shigella flexneri (K-A); test: as above; format: cell-based; conditions: HIA medium, 37° C., 18 hours
Description: as §1, §2, §3, §4, §5

[7] = system: Escherichia coli (K-12); test: as above; format: cell-based; conditions: HIA medium, 37° C., 18 hours
Description: as §1, §2, §3, §4, §5

[8] = system: Klebsiella pneumoniae (ATCC 10031); test: as above; format: cell-based; conditions: ATCC10031, HIA medium, 37° C., 18 hours
Description: as §1, §2, §3, §4, §5

[9] = system: Serratia marcescens (S-33); test: as above; format: cell-based; conditions: HIA medium, 37° C., 18 hours
Description: as §1, §2, §3, §4, §5

[10] = system: Salmonellaenteritidis (KB-21); test: as above; format: cell-based; conditions: read-out: Minimum growth inhibitory concentration (MIC)
Description: as §1, §2, §3, §4, §5

[11] = system: Proteus vulgaris (OX-19); test: as above; format: cell-based; conditions: HIA medium, 37° C., 18 hours
Description: as §1, §2, §3, §4, §5

[12] = system: Pseudomonas aeruginosa (395); test: as above; format: cell-based; conditions: HIA medium, 37° C., 18 hours
Description: as §1, §2, §3, §4, §5

[13] = IFO3320, Enterobacter aerogenes (IFO-3320), HIA medium, 37° C., 18 hours
[14] = Salmonellaenteritidis (KB-21), HIA medium, 37° C., 18 hours

Row | Compound | activity on Pseudomonas aeruginosa [1] | effect on Pseudomonas aeruginosa-induced infections of difficultly-curable nature [1] | MIC [2] [µg/mL] | MIC ([3]; IFO3320, 18 h) [µg/mL] | MIC [4] [µg/mL] | MIC ([5]; Staphylococcus aureus, 18 h) [µg/mL] | MIC [6] [µg/mL] | MIC [7] [µg/mL] | MIC [8] [µg/mL] | MIC [9] [µg/mL] | MIC ([10]; 18 h) [µg/mL] | MIC [11] [µg/mL] | MIC [12] [µg/mL] | MIC [3, 13] [µg/mL] | MIC [10, 14] [µg/mL] | MIC ([5]; Staphylococcus aureus (FDA 209P), HIA medium, 37° C., 18 hours) [µg/mL]
1 | CC1(C)S[C@@H]2[C@H](NC(=O)C(C(=O)O)c3ccccc3)C(=O)N2[C@H]1C(=O)O (stereo partly drawn) [CB--PC, disodium-α-carboxybenzyl penicillin, reference compound] | low activity | ineffective | 6.25 | 1.56 | 100 | 1.56 | 1.56 | 6.25 | > 100 | 3.13 | 1.56 | 3.13 | 25 |  |  | 
2 | CC1(C)CC(=O)c2c([nH]cc(C(=O)N[C@@H](C(=O)N[C@@H]3C(=O)N4[C@@H]3SC(C)(C)[C@@H]4C(=O)O)c3ccccc3)c2=O)C1 [Synthesis Example 1, 6-[D-(-)-α-(7,7-dimethyl-4,5-dioxo-1,4,5,6,7,8-hexahydroquinoline-3-carboxamido)phenylacetamido]-penicillanic acid] |  |  | 6.25 (≈ 11 µM) |  | 6.25 (≈ 11 µM) | 1.56 (≈ 2.75 µM) | 0.39 (≈ 0.688 µM) | 0.78 (≈ 1.38 µM) | 12.5 (≈ 22.1 µM) | 3.13 (≈ 5.52 µM) |  | 1.56 (≈ 2.75 µM) | 1.56 (≈ 2.75 µM) | 0.78 (≈ 1.38 µM) | 0.39 (≈ 0.688 µM) | 
3 | CCn1cc(C(=O)N[C@@H](C(=O)N[C@@H]2C(=O)N3[C@@H]2SC(C)(C)[C@@H]3C(=O)O)c2ccccc2)c(=O)c2c1CCCC2=O [Synthesis Example 2, 6-[D-(-)-α-(1-ethyl-4,5-dioxo-1,4,5,6,7,8-hexahydroquinoline-3-carboxamodo)phenylacetamido]-penicillanic acid] |  |  | 6.25 (≈ 11 µM) |  | 6.25 (≈ 11 µM) |  | 0.78 (≈ 1.38 µM) | 3.13 (≈ 5.52 µM) | 25 (≈ 44.1 µM) | 3.13 (≈ 5.52 µM) |  | 3.13 (≈ 5.52 µM) | 3.13 (≈ 5.52 µM) | 1.56 (≈ 2.75 µM) | 0.78 (≈ 1.38 µM) | 1.56 (≈ 2.75 µM)
